Tests used:
[1] = system: clonidine-induced aggressive behavior; experiment: Effect on Clonidine-Induced Aggressive Behavior (number of biting attacks during 30 minutes); type: in vivo, male ddY mice; settings: po; for Number of the Biting Attacks (mean ± S.E.M.), Test Compound-Treated Group: 60 min before clonidine 20 mg/kg ip, 30 min count
Description: The effect of a test compound on the aggressive behavior induced by intraperitoneal administration of clonidine was investigated. […] The experiment was performed by using several groups of male ddY mice (weighing 20 to 25 g, Japan SLC), each group consisting of two mice. The test compound was suspended in injectable distilled water (Otsuka Pharmaceutical Co., Ltd.) containing Tween 80 [polyoxyethylene (20) sorbitan monooleate]. Clonidine hydrochloride (Sigma Co.) was dissolved in physiological saline solution (Otsuka Pharmaceutical Co., Ltd.). The test compound suspension and the control suspension were orally administered to separate groups of the mice (0.1 ml per 10 g of body weight). Sixty minutes after the oral administration of the test compound, clonidine hydrochloride (20 mg/kg) was intraperitoneally injected. The number of biting attacks during 30 minutes after clonidine treatment was counted. The effect of the compound was evaluated by comparing the average number of biting attacks of the test compound-administered groups with that of control groups (Statistical comparison: Student's t-test).

[2] = system: ddY-strain male mice; experiment: Acute Toxicity Test (minimum lethal dose, oral); type: in vivo; settings: seven days after administration
Description: Test compounds were orally administered to groups of ddY-strain male mice weighing 20±1 g, each group consisting of three mice. Seven days after the administration, minimum lethal dose (MLD) of each compound was determined by observing the mortality.

[3] = Mus musculus, 10 mg/kg, read-out: Number of the Attacks of Test Compound-Treated Group/Number of the Attacks of Control Group
[4] = Mus musculus, 2.5 mg/kg, read-out: Number of the Attacks of Test Compound-Treated Group/Number of the Attacks of Control Group

CCn1c(=O)c2c(nc(/C=C/c3ccccc3F)n2C)n(CC)c1=O [Compound 168, (E)-1,3-Diethyl-8-(2-fluorostyryl)-7-methylxanthine]
Number of the Biting Attacks (mean ± S.E.M.), Test Compound-Treated Group ([1]; 10 mg/kg): 53.9 ± 8.59 | response vs control in vivo at 10 mg/kg [1, 3]: 710% | MLD (minimum lethal dose) [2]: > 100 mg/kg

CCOc1ccc(/C=C/c2nc3c(c(=O)n(CC)c(=O)n3CC)n2C)cc1 [Compound 124, (E)-8-(4-Ethoxystyryl)-1,3-diethyl-7-methylxanthine]
Number of the Biting Attacks (mean ± S.E.M.), Test Compound-Treated Group ([1]; 2.5 mg/kg): 85.8 ± 12.41 | Number of the Biting Attacks (mean ± S.E.M.), Test Compound-Treated Group ([1]; 10 mg/kg): 50.5 ± 17.7 | MLD (minimum lethal dose) [2]: > 300 mg/kg

CCCn1c(=O)c2c(nc(/C=C/c3cc(OC)c(OC)c(OC)c3)n2C)n(CCC)c1=O [Compound 5, (E)-7-Methyl-1,3-dipropyl-8-(3,4,5-trimethoxystyryl)xanthine]
Number of the Biting Attacks (mean ± S.E.M.), Test Compound-Treated Group ([1]; 5 mg/kg): 25.4 ± 7.71 | response vs control in vivo at 5 mg/kg ([1]; Mus musculus, 5 mg/kg, read-out: Number of the Attacks of Test Compound-Treated Group/Number of the Attacks of Control Group): 350% | MLD (minimum lethal dose) [2]: > 300 mg/kg

CCCn1c(=O)c2c(nc(/C=C/c3ccc4c(c3)OCCO4)n2C)n(CCC)c1=O [Compound 18, (E)-8-[2-(1,4-Benzodioxan-6-yl)vinyl]-7-methyl-1,3-dipropylxanthine]
Number of the Biting Attacks (mean ± S.E.M.), Test Compound-Treated Group ([1]; 2.5 mg/kg): 8.6 ± 3.74 | Number of the Biting Attacks (mean ± S.E.M.), Test Compound-Treated Group ([1]; 10 mg/kg): 26.2 ± 7.32 | response vs control in vivo at 2.5 mg/kg [1, 4]: 390% | response vs control in vivo at 10 mg/kg [1, 3]: 640% | MLD (minimum lethal dose) [2]: > 300 mg/kg

CCCn1c(=O)c2c(nc(/C=C/c3ccc(OC)c(OC)c3OC)n2C)n(CCC)c1=O [Compound 22, (E)-7-Methyl-1,3-dipropyl-8-(2,3,4-trimethoxystyryl)xanthine]
Number of the Biting Attacks (mean ± S.E.M.), Test Compound-Treated Group ([1]; 10 mg/kg): 33.1 ± 5.18 | response vs control in vivo at 10 mg/kg [1, 3]: 680% | MLD (minimum lethal dose) [2]: > 300 mg/kg

CCCn1c(=O)c2c(nc(/C=C/c3ccc(OC)c(OC)c3)n2C)n(CCC)c1=O [Compound 1, (E)-8-(3,4-Dimethoxystyryl)-7-methyl-1,3-dipropylxanthine]
Number of the Biting Attacks (mean ± S.E.M.), Test Compound-Treated Group ([1]; 2.5 mg/kg): 27.5 ± 7.3 | response vs control in vivo at 2.5 mg/kg [1, 4]: 480% | MLD (minimum lethal dose) [2]: > 300 mg/kg

— US5543415A, “Antidepressants” (Kyowa Hakko Kogyo Co., Ltd., priority 1992, dated 1996)
